The IC50 is the concentration needed to halve the response being measured. A lower IC50 goes with greater potency in that assay.

Four compounds from patent US10189803B2, “Synthesis of therapeutic and diagnostic drugs centered on regioselective and stereoselective ring opening of aziridinium ions” (ILLINOIS INSTITUTE OF TECHNOLOGY, priority 2008, dated 2019) can be followed below.

The nature of series [1]: Complexation kinetics with Bi(III), Arsenazo III (AAIII) spectroscopic competing reaction. The format is physicochemical. As to conditions: pH 4.0 (0.15M NH4OAc), 25° C., 1 hour. The method, then:
The novel ligand DEPA was further evaluated for the complexation kinetics with other metals. The complexation kinetics of the ligand DEPA with Bi(III) was determined using a well-known spectroscopic competing reaction with AAIII according to a modification of the reported procedure (Kodama, M.; Koike, T.; Mahatma, A. B.; Kimura, E. Inorg. Chem. 1991, 30, 1270). AAIII is known to form a weak complex with many different metals, which produce a UV absorbance maximum between ˜652 nm. However, uncomplexed AAIII absorb little at this wavelength. When introduced to a solution containing the AAIII-metal complex, a chelate can compete with AAIII for the metal. The idea is that if the chelate is more capable of binding the metal than AAIII, the metal will dissociate from the AAIII complex and form a complex with the chelate leading to the decrease in the absorbance at the wavelength. The absorbance (A652) for AAIII-Bi(III) complex was measured in the absence and in the presence of the ligands over 1 hour at rt. The complexation kinetics of Bi(III) was determined at pH 4.0 as hydrolysis occurs at a higher pH. The complexation result of the new ligands studied herein was compared to that of DOTA.
General procedure for complexation kinetics using AAIII. The kinetics experiments were performed as previously described. […]

Series [2] can be described thus: Complexation kinetics with Lu(III), AAIII assay. It is filed as physicochemical. The method, then: In summary, the novel decadentate ligand DEPA having both macrocyclic and acyclic metal binding moieties was efficiently prepared.
General procedure for complexation kinetics using AAIII. The kinetics experiments were performed as previously described. Ultrapure ammonium acetate (Aldrich, #431311) and hydrochloric acid solution (J. T. Baker, #JT6900-5) were purchased and used as received. All buffer solutions were prepared using deionized water (Milli-Q®, 18 MΩ). Metal-free stock solutions of all NH4OAc buffers (0.15 M, pH 4 or pH 4.5) were prepared using Chelex-100 resin (100-200 mesh, Bio-Rad Lab, Hercules, Calif.). Chelex resin (5 g) was added into the butter solution (100 mL) and the mixture was shaken for 1 h in a shaker (Eberbach), stored in the refrigerator overnight, and filtered through a Corning filter system (430513, pore size […]). A 15 μM AAIII solution in 0.15 M NH4OAc (pH 4 or pH 4.5) were prepared by adding AAIII (5.82 mg) to the NH4OAc buffer (500 mL). A solution of Bi(III)-AAIII (7.5 μM) was freshly prepared by mixing AAIII solution (15 μM, 50 mL) in 0.15 M NH4OAc (pH 4) with Bi(III) atomic absorption standard solution (79 μL, 995 μg/mL). A solution of Lu(III)-AAIII (1.8 μM) was freshly prepared by mixing AAIII solution ([…], 50 mL) in 0.15 M NH4OAc buffer (pH 4.5) with Lu(III) atomic absorption standard solution (15.4 μL, 1014 μg/ml). […]

Series [3] has as its system Hela cells. Nature of the series: Antiproliferative activity, MTS assay, HeLa cells. It is filed as cell-based, Human. As to conditions: for IC50: 72 h incubation, MTS; for cytotoxicity in HeLa cells over a series of concentrations (in words): FIG. 18. A digest of the protocol: (§1)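 HeLa cells (2,000/well) and HT29 cells (5,000/well) were allowed to attach for 24 h, then exposed to at least five compound dilutions for 72 h. Viability was read by MTS/PMS reduction (3 h, 37° C, A490). IC50 was obtained by nonlinear regression of OD as a fraction of solvent control, at least in triplicate.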
On the technique in general: Tetrazolium assays rely on reduction of a dye to a coloured formazan, in cell work by metabolically active cells.

The subject of series [4] is HT29 cells. In words: Antiproliferative activity, MTS assay, HT29 cells. The format is cell-based, Human. As to conditions: 72 h incubation. The method in brief: as §1
The test system of series [5] is MRC-5 cells. Nature of the series: Antiproliferative activity in non-cancer lung fibroblast MRC-5 cells. It is filed as cell-based, human. As to conditions: FIG. 20. The method, then:
The cytotoxicity of the chelators in the cancer cells was compared to their cytotoxicities in non-cancer cells using human lung fibroblast cell (MRC-5).
Cell culture Human cervix HeLa cell line was obtained from ATCC (Rockville, Md.) and cultured in minimum essential medium (MEM) with L-glutamine (2 mM), Earle's BSS and sodium bicarbonate (1.5 g/L), supplemented with 10% fetal bovine serum (FBS), non-essential amino acids (0.1 mM), sodium pyruvate (1 mM) and antibiotic/antimycotic solution in a humidified atmosphere with 5% CO2 at 37° C. Human colon cancer cell line HT29 was maintained in a humidified atmosphere with 5% CO2 at 37° C. in RPMI-1640 medium, containing 10% FBS with L-glutamine and antibiotic/antimycotic. Lung fibroblast MRC-5 cell line was obtained from ATCC (Rockville, Md.) and cultured in ATCC formulated EMEM, supplemented with 10% fetal bovine serum (FBS) in a humidified atmosphere with 5% CO2 at 37° C.
Antiproliferative Activity. […] Optical absorbance at 490 nm was then recorded with an enzyme-linked immunosorbent assay (ELISA) microtiter plate reader (Biotek). […] Antiproliferative activity of the test compounds was expressed as the fraction of optical densities of treated the cells relative to the untreated solvent controls.^31 The data were plotted in GraphPad Prizm 3.0. […]

Series [6] relates to Hela cells. In words: Iron saturation experiment, Hela cell growth (MTS). It is filed as cell-based, Human. As to conditions: for effect on Hela cells saturated with Fe(III)-citrate (in words): chelator 50 μM, Fe(III)-citrate 50 μM. As for the experimental part:
Cytotoxicity of the new chelators was measured in the HeLa and HT29 cancer cells and compared to that of the clinically used iron chelators DFO and DTPA. […] The preliminary cell culture experiments were performed to see ifNETA is an effective cytotoxic agent. […] In order to investigate the effect of the chelators on the cellular growth, the Hela cancer cells saturated with Fe(III)-citrate (50 μM) were incubated with each of the chelators (50 μM).
Iron Saturation Experiment Hela Cells were inoculated onto 96-well plates at density of 2,000 per well in 0.1 mL complete medium and incubated for 24 h. […] Control samples containing no ferric citriate were also tested. […] After the incubation, cells proliferation rates were evaluated by MTS assay.

Series [7] in a line: T1 relaxivity of Gd(III) complexes (Bruker mq60 NMR analyzer). As to conditions: aqueous Gd(III) complexes, ~pH 7, 60 MHz. The format is physicochemical. As for the experimental part:
Gd(NE3TA) and Gd(NE3TA-Bn) were synthesized by reacting GdCl3 with NE3TA and NE3TA-Bn, respectively. NE3TA or NE3TA-Bn were mixed with GdCl3 in a molar ratio of 1 to 0.9, and the resulting mixture at pH 7 was heated to 90° C. and stirred until no free Gd(III) ions were detected using an ArsenazoIII (AAIII) assay. Relaxivity of the aqueous […] complexes (pH 7) was measured on a Bruker MQ60 NMR analyzer, and the concentration of the Gd(III) complexes was measured by ICP-MS. […] NE3TA was successfully conjugated with the most common bile acid, cholic acid (FIG. 41).
(§2) Relaxivity Measurements. Relaxivity measurements were acquired by taking the slope of a plot of 1/T1 (s^−1) versus concentration (mM). The longitudinal water proton relaxation times (T1) were determined using a Bruker mq60 NMR (Bruker Canada, Milton, ON, Canada) analyzer operating at 59.97 MHz and 37° C. The agent was added to Millipore water and serially diluted by 0.5 to give a series of 5 concentrations (500 μL total volume) for each relaxivity trial. The T1 was determined using an inversion recovery pulse sequence with 10 different pulse separations per sample, 4 repetitions per echo time, phase cycling, and a recycle delay that is ≥5 times the T1 of each given sample. All curves were fit using a monoexponential curve fitting formula.
Relaxivity of the aqueous Gd(III) complexes (˜pH 7) were measured on a Bruker MQ60 NMR analyzer, and the concentration of the Gd(III) complexes were measured by ICP-MS. […] As mentioned above, the on and off binding to Gd(III) of one of the pendant coordinates would have resulted enhanced relaxivity of Gd(C-NETA) compared to Gd(C-DOTA). Among the evaluated Gd(III) complexes, Gd(C-NE3TA) gives the highest T1 relaxivity at 60 MHz, probably due to increase in q. The relaxation rates for the Gd(III) chelates are dominated by the inner-sphere dipolar coupling between the coordinated water molecule and the paramagnetic Gd(III). The measured relaxivities arise from the exchange between the coordinated water molecule and the surrounding water molecules in solution. […] No indication of Gd(III) dissociation is evident from the relaxivity data, which is in agreement with the in vitro serum stability and in vivo biodistribution studies.
as §2, with “The T1 relaxivity was determined” for “The T1 was determined”

For `O=C(O)CN1CCN(CCN(CC(=O)O)CC(=O)O)CCN(CC(=O)O)CCN(CC(=O)O)CC1` [DEPA, {7-[2-(Bis-carboxymethyl-amino)-ethyl]-4,10-bis-carboxymethyl-1,4,7,10-tetraazacyclo-dodec-1-yl}-acetic acid], the “complexation with Bi(III) (absorbance at 652 nm vs time, in words)” value in series [1] is “quite prompt and substantial binding”. Moreover, the “complexation with Lu(III) (in words)” value in series [2] is recorded as “slow in binding”.

On to `O=C(O)CN(CCN(CC(=O)O)CC(=O)O)CCN(CC(=O)O)CC(=O)O` [DTPA, diethylenepentaacetic acid, reference compound], for which, in series [3], the IC50 worked out at 264 ± 36.2 µM and the “cytotoxicity in HeLa cells over a series of concentrations (in words)” value is reported as “almost no cytotoxicity”. Further, in series [4], the IC50 worked out at 39.1 ± 4 µM. In addition, the “viability of normal MRC-5 cells compared to cancer cells (in words)” value in series [5] is reported as “much enhanced viability of normal cells”. Moreover, the “effect on Hela cells saturated with Fe(III)-citrate (in words)” value in series [6] was “almost no anti-proliferative activity”. The “HeLa cell survival (in words)” value in series [6] (free ligand 50 μM, no ferric citrate) is given as “almost all HeLa cells incubated with DTPA (50 μM) survived”.

On to `CC(=O)N(O)CCCCCNC(=O)CCC(=O)N(O)CCCCCNC(=O)CCC(=O)N(O)CCCCCN` [DFO, desferoxamine, reference compound], for which the 50% inhibitory concentration (IC50) in series [3] was above 50 µM; in series [4], 36.1 ± 1.4 µM. For the same compound, in series [3], the “cytotoxicity in HeLa cells over a series of concentrations (in words)” value is “not concentration-dependent”. Also, the “viability of normal MRC-5 cells compared to cancer cells (in words)” value in series [5] is on record as “little change in cell viability”. The “effect on Hela cells saturated with Fe(III)-citrate (in words)” value in series [6] is “modest increase in cell viability”.

For the compound `O=C(O)CN1CCN(CC(=O)O)CCN(CC(=O)O)CCN(CC(=O)O)CC1` [DOTA, reference compound], the “complexation with Bi(III) (absorbance at 652 nm vs time, in words)” value in series [1] is on record as “sluggish complexation”. Moreover, in series [7], the “T1 relaxivity of Gd(III) complexes of bifunctional ligands” value came to 3.96 mM⁻¹ s⁻¹.
